Numbers after ± are expanded uncertainties. One block for each compound: values may come before it.
Conditions: Liquid, Ebulliometric method (Recirculating still)

vapor or sublimation pressure (390.98 K): 2 ± 0.3 kPa
vapor or sublimation pressure (410.82 K): 5.2 ± 0.3 kPa
vapor or sublimation pressure (422.47 K): 8.3 ± 0.3 kPa
SMILES: COC(=O)CCCCC(=O)OC [dimethyl 1,6-hexanedioate]

vapor or sublimation pressure (353.94 K): 101.3 ± 5.1 kPa
SMILES: C1CCCCC1 [cyclohexane]

vapor or sublimation pressure (363.39 K): 2 ± 0.3 kPa
vapor or sublimation pressure (382.13 K): 5.2 ± 0.3 kPa
vapor or sublimation pressure (393.49 K): 8.3 ± 0.3 kPa
SMILES: COC(=O)CCC(=O)OC [dimethyl 1,4-butanedioate]

vapor or sublimation pressure (376.09 K): 2 ± 0.3 kPa
vapor or sublimation pressure (395.8 K): 5.2 ± 0.3 kPa
vapor or sublimation pressure (407.11 K): 8.3 ± 0.3 kPa
SMILES: COC(=O)CCCC(=O)OC [dimethyl pentanedioate]

vapor or sublimation pressure (371.53 K): 101.3 ± 5.1 kPa
SMILES: CCCCCCC [heptane]

From the NIST ThermoML archive (doi:10.1016/j.jct.2019.02.006)
